Assay results reported in patent publication US20250057844A1, “METHODS OF TREATING NEOPLASTIC DISEASES” (SILLAJEN, INC., priority 2021, published 2025).
Like-named read-outs stand apart in the source and are kept apart here.

Key:
biotinylated PLK1 = biotinylated PLK1 (Homo sapiens, UniProt P53350); assay: Target residence time assay (Biacore T200 surface plasmon resonance), PLK1; format: binding; conditions: SPR, 22° C.
Method: The affinity, i.e. the equilibrium dissociation constant (KD) ([…]), of the compound of formula (I) against TTK and PLK1 were determined using a Biacore T200TM surface plasmon resonance instrument using recombinant expressed TTK kinase domain (amino acids 519-808) or biotinylated PLK1. The immobilization of TTK was performed as described in Maia et al. Annals of Oncology, 2015; 26:2180-2192. The immobilization of biotinylated PLKI was performed as described in Willemsen-Seegers et al. Journal of Molecular Biology, 2017; 429:574-586. The subsequent single cycle kinetic assays were performed at 22° C. using a compound concentration gradient of 1, 3.6, 10, 31.6 and 100 nM for TTK and 10, 31.6, 100, 316 and 1000 nM for PLK1, a contact time of 100 s and a flow rate of […]. The dissociation period was 1200-1800 s and a correction for an unstable surface using a blank run with buffer was performed.

[1] = Second PK study: daily oral dose for 5 days, two formulations; format: in vivo, female Swiss Albino mice; conditions: for AUC(0-t): AUC0-24 h
Method: In a second study female Swiss Albino mice were administered daily oral dose of 5, 7.5, or 10 mg/kg of the compound of formula (I) for 5 days. […] PK samples were collected on day 5 for groups 1 to 6. Formulation 1 consisted of DMSO, cremophor EL, and 5% mannitol in water (10/10/80; v/v/v). Formulation 2 consisted of ethanol, PEG 400, and citric acid 20 mM (10/10/80; v/v/v). […] In each of the three studies blood was collected via the sephanous vein into K2-EDTA tubes kept on ice until centrifugation at 4° C. Plasma was stored at ap-proximately-80° C. […] PK parameters were calculated using Phoenix® WinNonLin 6.4. PK analysis was based on sparse sampling.

[2] = Third PK study: intravenous dose on day 1 or on day 6 after 5 days oral dosing; format: in vivo, female Swiss Albino mice; conditions: for half-life / clearance / Vd / AUC(0-inf) / AUC(0-t) / C0: female, Swiss Albino, mouse, plasma, iv, 5 mg/kg
Method: In a third study female Swiss Albino mice were administered intravenously (bolus, 5 mL/kg) dose of 5 mg/kg of the compound of formula (I). Group 1 (9 mice) received a single i.v. dose administration on day 1. Group 2 (9 mice) received daily oral administration of 10 mg/kg of the compound of formula (I) from day 1 to day 5 following by a single i.v. dose administration of 5 mg/kg of the compound of formula (I) on day 6. PK samples were collected on day 1 for group 1 and on day 6 for group 2. The formulation vehicle consisted of ethanol, PEG 400 and citric acid 20 mM (10/10/80; v/v/v) in water for injection (WFI). Blood samples were taken pre-dose and at 0.083, 0.25, 0.5, 1, 2, 6, 12, and 24 h post-dose administration (3 mice/time point). In each of the three studies blood was collected via the sephanous vein into K2-EDTA tubes kept on ice until centrifugation at 4° C. Plasma was stored at ap-proximately-80° C. […] PK parameters were calculated using Phoenix® WinNonLin 6.4. PK analysis was based on sparse sampling.

[3] = test system: tumor patient-derived xenografts (PDX), including TNBC and hepatocellular cancer (HCC) models; assay: Patient-derived xenografts (PDX) in mice; format: in vivo; conditions: data not shown
[4] = day 5, daily oral 5 mg/kg, Formulation 1, female mice
[5] = day 5, daily oral 5 mg/kg, Formulation 2, female mice
[6] = day 5, daily oral 7.5 mg/kg, Formulation 1, female mice
[7] = day 5, daily oral 7.5 mg/kg, Formulation 2, female mice
[8] = day 5, daily oral 10 mg/kg, Formulation 1, female mice
[9] = day 5, daily oral 10 mg/kg, Formulation 2, female mice
[10] = female, Swiss Albino, mouse, plasma, po, 5 mg/kg, day 5, daily oral 5 mg/kg, Formulation 1, female mice
[11] = female, Swiss Albino, mouse, plasma, po, 5 mg/kg, day 5, daily oral 5 mg/kg, Formulation 2, female mice
[12] = female, Swiss Albino, mouse, plasma, po, 7.5 mg/kg, day 5, daily oral 7.5 mg/kg, Formulation 1, female mice
[13] = female, Swiss Albino, mouse, plasma, po, 7.5 mg/kg, day 5, daily oral 7.5 mg/kg, Formulation 2, female mice
[14] = female, Swiss Albino, mouse, plasma, po, 10 mg/kg, day 5, daily oral 10 mg/kg, Formulation 1, female mice
[15] = female, Swiss Albino, mouse, plasma, po, 10 mg/kg, day 5, daily oral 10 mg/kg, Formulation 2, female mice
[16] = Group 1, Day 1: single 5 mg/kg i.v., female mice
[17] = Group 2, Day 6: 5 mg/kg i.v. after 10 mg/kg oral daily for 5 days, female mice

Sequence of biotinylated PLK1 (P53350 whole entry, the tested form may be a part): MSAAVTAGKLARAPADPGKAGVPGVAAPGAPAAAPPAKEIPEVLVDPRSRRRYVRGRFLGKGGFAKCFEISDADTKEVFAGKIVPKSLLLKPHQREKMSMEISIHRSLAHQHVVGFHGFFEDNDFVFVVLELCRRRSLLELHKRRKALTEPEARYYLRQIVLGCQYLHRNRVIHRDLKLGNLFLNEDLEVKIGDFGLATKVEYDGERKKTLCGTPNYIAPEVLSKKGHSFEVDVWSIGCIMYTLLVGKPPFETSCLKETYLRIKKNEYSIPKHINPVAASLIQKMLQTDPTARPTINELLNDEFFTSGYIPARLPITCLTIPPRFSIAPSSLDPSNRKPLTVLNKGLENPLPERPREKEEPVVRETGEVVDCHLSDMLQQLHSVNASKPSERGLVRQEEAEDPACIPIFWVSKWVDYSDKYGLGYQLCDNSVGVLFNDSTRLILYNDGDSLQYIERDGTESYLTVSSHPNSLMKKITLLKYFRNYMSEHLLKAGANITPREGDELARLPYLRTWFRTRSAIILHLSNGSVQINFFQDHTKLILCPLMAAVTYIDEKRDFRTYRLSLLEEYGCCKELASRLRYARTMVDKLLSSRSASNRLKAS

In the case of `COc1cc(N2CCNCC2)ccc1Nc1ncc2c(n1)-n1ccc(C(=O)Nc3c(C)cccc3C)c1CC2` [compound of formula (I)], the “target-residency on PLK1” value (biotinylated PLK1) is reported as “just a few minutes”, the Tmax ([1]; Swiss Albino, mouse, plasma, day 5, daily oral 5 mg/kg, Formulation 1, female mice, read-out: Tmax) is reported as 2 h and the Tmax ([1]; Swiss Albino, mouse, plasma, day 5, daily oral 7.5 mg/kg, Formulation 1, female mice, read-out: Tmax) is reported as 4 h. For the same compound, the Tmax ([1]; Swiss Albino, mouse, plasma, day 5, daily oral 10 mg/kg, Formulation 1, female mice, read-out: Tmax) was 4 h, the “% extrapolated” value [1, 4] was 8.33% and the AUCinf/Dose [1, 4] was 81.6 ng·h/mL/mg/kg. For the same compound, the AUClast/Dose [1, 4] was 74.8 (h*ng/mL)/(mg/kg), the Cmax/Dose [1, 4] was 5.16 (ng/mL)/(mg/kg) and the “% extrapolated” value [1, 5] was 1.53%. The AUCinf/Dose [1, 5] was 116 ng·h/mL/mg/kg, the AUClast/Dose [1, 5] was 114 (h*ng/mL)/(mg/kg) and the Cmax/Dose [1, 5] was 9.48 (ng/mL)/(mg/kg). For the same compound, the “% extrapolated” value [1, 6] was 5.04%, the AUCinf/Dose [1, 6] was 50 ng·h/mL/mg/kg and the AUClast/Dose [1, 6] was 47.5 (h*ng/mL)/(mg/kg). The Cmax/Dose [1, 6] was 6.03 (ng/mL)/(mg/kg), the “% extrapolated” value [1, 7] was 1.77% and the AUCinf/Dose [1, 7] was 82.4 ng·h/mL/mg/kg. The AUClast/Dose [1, 7] was 80.9 (h*ng/mL)/(mg/kg), the Cmax/Dose [1, 7] was 8.36 (ng/mL)/(mg/kg) and the “% extrapolated” value [1, 8] was 7.41%. The AUCinf/Dose [1, 8] was 60.8 ng·h/mL/mg/kg, the AUClast/Dose [1, 8] was 56.3 (h*ng/mL)/(mg/kg) and the Cmax/Dose [1, 8] was 4.01 (ng/mL)/(mg/kg). The “% extrapolated” value [1, 9] was 12.7%, the AUCinf/Dose [1, 9] was 87 ng·h/mL/mg/kg and the AUClast/Dose [1, 9] was 76 (h*ng/mL)/(mg/kg). For the same compound, the Cmax/Dose [1, 9] was 5.65 (ng/mL)/(mg/kg), the bioavailability ([1]; female, Swiss Albino, mouse, plasma, oral, multiple daily dose administration, based on i.v. exposure, read-out: oral bioavailability) was 18 to 41% and the AUC(0-inf) [1, 10] was 408 ng·h/mL. The Cmax [1, 10] was 25.8 ng/mL, the AUC(0-t) [1, 10] was 374 ng·h/mL and the bioavailability ([1]; female, Swiss Albino, mouse, plasma, po, 5 mg/kg, day 5, daily oral 5 mg/kg, Formulation 1, female mice, based on iv exposure, read-out: F (%)) was 29%. The half-life at 5 days ([1]; female, Swiss Albino, mouse, plasma, po, 5 mg/kg, day 5, daily oral 5 mg/kg, Formulation 1, female mice, read-out: Apparent T1/2 (converted)) was 7.8 h, the AUC(0-inf) [1, 11] was 579 ng·h/mL and the Cmax [1, 11] was 47.4 ng/mL. For the same compound, the AUC(0-t) [1, 11] was 570 ng·h/mL, the bioavailability ([1]; female, Swiss Albino, mouse, plasma, po, 5 mg/kg, day 5, daily oral 5 mg/kg, Formulation 2, female mice, based on iv exposure, read-out: F (%)) was 41% and the half-life ([1]; female, Swiss Albino, mouse, plasma, po, 5 mg/kg, day 5, daily oral 5 mg/kg, Formulation 2, female mice, read-out: Apparent T1/2 (converted)) was 4.02 h. It also gave an AUC(0-inf) [1, 12] of 375 ng·h/mL, a Cmax [1, 12] of 45.2 ng/mL and an AUC(0-t) [1, 12] of 356 ng·h/mL. For the same compound, the bioavailability ([1]; female, Swiss Albino, mouse, plasma, po, 7.5 mg/kg, day 5, daily oral 7.5 mg/kg, Formulation 1, female mice, based on iv exposure, read-out: F (%)) was 18%, the half-life ([1]; female, Swiss Albino, mouse, plasma, po, 7.5 mg/kg, day 5, daily oral 7.5 mg/kg, Formulation 1, female mice, read-out: Apparent T1/2 (converted)) was 5.31 h and the AUC(0-inf) [1, 13] was 618 ng·h/mL. The Cmax [1, 13] was 62.7 ng/mL, the AUC(0-t) [1, 13] was 607 ng·h/mL and the bioavailability ([1]; female, Swiss Albino, mouse, plasma, po, 7.5 mg/kg, day 5, daily oral 7.5 mg/kg, Formulation 2, female mice, based on iv exposure, read-out: F (%)) was 29%. For the same compound, the half-life ([1]; female, Swiss Albino, mouse, plasma, po, 7.5 mg/kg, day 5, daily oral 7.5 mg/kg, Formulation 2, female mice, read-out: Apparent T1/2 (converted)) was 3.79 h, the AUC(0-inf) [1, 14] was 608 ng·h/mL and the Cmax [1, 14] was 40.1 ng/mL. For the same compound, the AUC(0-t) [1, 14] was 563 ng·h/mL, the bioavailability ([1]; female, Swiss Albino, mouse, plasma, po, 10 mg/kg, day 5, daily oral 10 mg/kg, Formulation 1, female mice, based on iv exposure, read-out: F (%)) was 22% and the half-life ([1]; female, Swiss Albino, mouse, plasma, po, 10 mg/kg, day 5, daily oral 10 mg/kg, Formulation 1, female mice, read-out: Apparent T1/2 (converted)) was 5.81 h. It also gave an AUC(0-inf) [1, 15] of 870 ng·h/mL, a Cmax [1, 15] of 56.5 ng/mL and an AUC(0-t) [1, 15] of 760 ng·h/mL. The bioavailability ([1]; female, Swiss Albino, mouse, plasma, po, 10 mg/kg, day 5, daily oral 10 mg/kg, Formulation 2, female mice, based on iv exposure, read-out: F (%)) was 31%, the half-life ([1]; female, Swiss Albino, mouse, plasma, po, 10 mg/kg, day 5, daily oral 10 mg/kg, Formulation 2, female mice, read-out: Apparent T1/2 (converted)) was 7.66 h and the Tmax ([1]; female, Swiss Albino, mouse, plasma, day 5 of daily oral administration, read-out: median Tmax) was 2 to 4 h. For the same compound, the “concentrations at 24 hours lower than C0” value ([2]; 5 mg/kg i.v.) was “more than 100 fold”, the “maximum AUCinf extrapolation” value ([2]; 5 mg/kg i.v.) was ≤ 2.54% and the AUC_% extrapolated [2, 16] was 2.54%. For the same compound, the Clast [2, 16] was 5.4 ng/mL, the AUC_% extrapolated [2, 17] was 1.65% and the Clast [2, 17] was 4.29 ng/mL. The half-life ([2]; 5 mg/kg i.v., both groups, read-out: half-life) was 4 to 4.7 h, the clearance ([2]; 5 mg/kg i.v., both groups, read-out: plasma clearance) was 55.4 to 57.9 mL/min/kg and the Vd ([2]; 5 mg/kg i.v., both groups, read-out: volume of distribution) was 15.4 to 19 L/kg. The AUC(0-inf) [2, 16] was 1440 ng·h/mL, the AUC(0-t) [2, 16] was 1400 ng·h/mL and the C0 [2, 16] was 636 ng/mL. The clearance ([2]; Group 1, Day 1: single 5 mg/kg i.v., female mice, read-out: CL) was 57.9 mL/min/kg, the half-life ([2]; Group 1, Day 1: single 5 mg/kg i.v., female mice, read-out: T1/2 (converted)) was 4.7 h and the Vd ([2]; Group 1, Day 1: single 5 mg/kg i.v., female mice, read-out: Vss) was 19 L/kg. The AUC(0-inf) [2, 17] was 1500 ng·h/mL, the AUC(0-t) [2, 17] was 1480 ng·h/mL and the C0 [2, 17] was 627 ng/mL. The clearance ([2]; Group 2, Day 6: 5 mg/kg i.v. after 10 mg/kg oral daily for 5 days, female mice, read-out: CL) was 55.4 mL/min/kg, the half-life ([2]; Group 2, Day 6: 5 mg/kg i.v. after 10 mg/kg oral daily for 5 days, female mice, read-out: T1/2 (converted)) was 4 h and the Vd ([2]; Group 2, Day 6: 5 mg/kg i.v. after 10 mg/kg oral daily for 5 days, female mice, read-out: Vss) was 15.4 L/kg. The “activity against PDX” value [3] was “significant activity”.
